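Where inhibition never reached the appropriate level, the endpoint shown equals the highest concentration tested. Otherwise, values were interpolated linearly from a five-concentration, 48-hour dose response in 96-well plates. TGI: total growth inhibition.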
How the values were obtained:
Assay in all cases: growth of human tumour cells (NCI), 48 h
NCI-H23 lung = test system: NCI-H23 lung
LOX IMVI melanoma = test system: LOX IMVI melanoma
A549 NSCLC = test system: A549 NSCLC
NCI-H226 lung = test system: NCI-H226 lung
SF-268 CNS = test system: SF-268 CNS
TK-10 renal = test system: TK-10 renal
A498 renal = test system: A498 renal
RPMI-8226 leukemia = test system: RPMI-8226 leukemia
CAKI-1 renal = test system: CAKI-1 renal
UACC-257 melanoma = test system: UACC-257 melanoma

Measured: TGI

CNS(=O)(=O)c1ccc2[nH]c(O)c(C3=Nc4ccccc4C3=O)c2c1
> 100 µM: NCI-H23 lung | LOX IMVI melanoma | A549 NSCLC | NCI-H226 lung | SF-268 CNS | TK-10 renal | A498 renal | RPMI-8226 leukemia | CAKI-1 renal | UACC-257 melanoma
